Measured values: patent EP0551200A1, “Protein phosphatase inhibitors for use in therapy” (priority 1992, dated 1993)

What was measured:
[1] = tested on: WISH cells; assay: Early protein phosphorylation changes in WISH cells; type: cell-based, human; details: data not shown
Protocol: Cell Cultures and Reagents - Human diploid fibroblasts, FS-4, 2343 gifts from Dr. J. Vilcek (New York University). They were grown in tissue culture flasks and maintained with minimal essential medium (MEM) supplemented with 10% fetal bovine serum (Hyclone, Logan, UT, US) herein referred to as regular medium. Human WISH cells were purchased from the American Type Culture Collection. Recombinant human TNF and IL-1 with specific activities of 2 x 10⁷ units and 1 x 10⁸ units/mg protein, respectively, and of purities of ≧99% were purchased from Genzyme Corp. (Cambridge, MA, US). Phorbol 12-myristate 13-acetate, bradykinin, forskolin, dibutyryl-cyclic AMP (dBt-cAMP) and FGF were from Sigma, Okadaic acid was purchased from Biomol (Plymouth Meeting, PA, US). Radioactive [³²P]P was from Du Pont-New England Nuclear. […]
(§1) Two-dimensional Gel Electrophoresis - The lyophilized fractions (each of approximately 12 µg) were subjected to isoelectric focusing for 18,000 V/h with pH 3-10 ampholytes using the Millipore Investigator two-dimensional electrophoresis system (Millipore). […] Molecular weight marker proteins from Sigma were detected by Coomassie Blue staining and marked on the autoradiogram. ³²P-Labeled 27 hsp complex prepared from human fibroblasts heat shocked at 43°C for 30 min was also used as a marker.

[2] = tested on: 27 hsp complex; assay: Phosphorylation of the 27 hsp complex in the cytosolic fraction of 32P-labeled fibroblasts; type: cell-based, human
Protocol: Human fibroblasts prelabeled with [³²P]orthophosphate (1 mCi/ml) were incubated with increasing concentrations of OA or TNF. Cytosolic fractions were prepared from the cells and subjected to two-dimensional gel electrophoresis. a, control; b, 80 nM OA; c, 160 nM OA; d, 50 units/ml TNF; and e, 320 nM OA.
The fibroblasts were treated with 200 nM of okadaic acid for 0 min (a), 5 min (b), 15 min (c), or 30 min (d). Cytosolic fractions were prepared from the fibroblasts and analyzed by two-dimensional gel electrophoresis.
Radiolabeling of Cells and Cell Lysis - For labeling with [³²P]orthophosphate cells were plated onto 90 mm plastic tissue culture dishes and incubated for 3 days for the cells to become confluent. […]
as §1, with “marker. […]” for “marker.”

[3] = tested on: IL-6; assay: Northern blot analysis of IL-6 gene expression in human fibroblasts; type: cell-based; details: regularly maintained cells
Protocol: Quiescent human fibroblasts were incubated with TNF (500 units/ml) (a) or OA (500 nM) (b) for 0, 30, 60 min after which total cellular RNA was extracted. Blots of RNA from these cells were hybridized to radiolabeled (10⁶ cpm/ml) Egr-1 cDNA probe. c, the blot in b was stripped and reprobed with c-jun cDNA. Note: Egr-1 mRNA probe was not completely stripped from the blot. The autoradiograph of the blot is presented. d, regularly maintained cells were incubated wither with no additions (control, 0 time) or with OA for 1, 3, 5, 7 h and Northern analysis was carried out with an IL-6 cDNA probe (ATCC, Rockville, MD, US).
Preparation of RNA and Northern Analysis - Human fibroblasts (4 x 10⁶) were seeded in 175cm² tissue culture flasks and incubated at 37°C for 6 days in regular medium. The cells were fed with regular medium on day 3. On day 6 the medium was replaced by minimal essential medium containing 0.25% fetal calf serum and incubated for another 48 h to maintain the cells in a quiescent state. Quiescent or regularly maintained cells were treated with a specific agonist for the times indicated (see Fig. 7). The cells were harvested and total cytoplasmic RNA isolated by a one-step guanidinium thiocyanate/phenol/chloroform method. […] The blots were autoradiographed and quantitated by the Visage 2000 Image system (BioImage Products, Ann Arbor, MI, US).

`C=C1[C@@H](O)[C@@H]2O[C@]3(CC[C@H](/C=C/[C@@H](C)[C@@H]4CC(C)=C[C@@]5(O[C@H](C[C@@](C)(O)C(=O)O)CC[C@H]5O)O4)O3)CC[C@H]2O[C@@H]1[C@@H](O)C[C@H](C)[C@H]1O[C@@]2(CCCCO2)CC[C@H]1C` [okadaic acid] was tested. Which “changes in early protein phosphorylation compared with TNF (in words)” value [1] did it give?
Its value is “almost identical changes”.

And the “phosphorylation state of the 27 hsp complex (in words)” value ([2]; 200 nM, after 30 min)?
The value was “hyperphosphorylated”.

What about the “concentration producing about the same increase in phosphorylation of the 27 hsp complex as 50 units/ml of TNF” value ([2]; 15 min) of the same molecule?
Its value is 160 to 320 nM.

What about the “time of induction of IL-6” value [3] of the same molecule?
The value was 7 h.
